Results published in ChEMBL document CHEMBL4184195, “Influence of hydrocarbon-stapling on membrane interactions of synthetic antimicrobial peptides” (Bioorg Med Chem, 2018).
≈ marks a conversion by molar mass, not a printed value. Calls of active or inactive are those of the source. No cut-off for these calls is given here. Bridge positions count the residues as written; N and C are the ends. Square brackets hold non-standard residues; d marks the D form. Peptide text beside a SMILES is read from it. S5 = C=CCCC[C@](C)(N)C(=O)O

Tests used:
Escherichia coli [1] = assay: Antibacterial activity against Escherichia coli BL21 after 20 hrs by two fold serial dilution method; format: functional; conditions: BL21, 20 h
Escherichia coli [2] = assay: Time dependent inhibition of Escherichia coli BL21 at 2 uM; format: functional, organism-based
Lipid bilayer [3] = assay: Binding affinity to POPC liposome membranes assessed as reduction in blue shift at 10 uM by tryptophan fluorescence-based fluorometry
[4] = Therapeutic index, ratio of MHC for human RBC to MIC for Escherichia coli BL21; format: toxicity; conditions: read-out: TI
[5] = Binding affinity to SDS detergent micelles assessed as reduction in blue shift at 10 uM by tryptophan fluorescence-based fluorometry
Lipid bilayer [6] = assay: Binding affinity to Escherichia coli large unilamellar vesicles assessed as reduction in blue shift at 10 uM by tryptophan fluorescence-based fluorometry
[7] = Hemolytic activity in human RBC at 4 uM after 1 hr; format: ADME, cell-based, Erythrocyte; conditions: red blood cells (erythrocytes), read-out: Activity
Erythrocyte = assay: Hemolytic activity in human RBC after 1 hr; format: ADME, cell-based
Escherichia coli [8] = assay: Growth inhibition of Escherichia coli BL21 at 2 uM after 2 hrs relative to 6K-F17; format: functional; conditions: for inhibition of growth at 2 µM: BL21, BL21, 2 h, read-out: GI
Escherichia coli [9] = assay: Time dependent inhibition of Escherichia coli BL21 at 4 uM; format: functional, organism-based
Escherichia coli [10] = assay: Time dependent inhibition of Escherichia coli BL21 at 8 uM; format: functional, organism-based
Lipid bilayer [11] = assay: Binding affinity to Escherichia coli large unilamellar vesicles assessed as change in spectral line shape by 31P solid-state NMR spectroscopic analysis
Lipid bilayer [12] = assay: Binding affinity to POPC liposome membranes assessed as change in spectral lineshape by 31P solid-state NMR spectroscopic analysis

Compound | MIC (Escherichia coli [1]) [µM] | Activity (Lipid bilayer [3]) | Activity [5] | Activity (Lipid bilayer [6]) | inhibition (Escherichia coli [2]) | selectivity ratio [4] | hemolysis at 1 h, 4 µM [7] [%] | MHC (Erythrocyte) [µM] | inhibition of growth at 2 µM (Escherichia coli [8]) [%] | inhibition (Escherichia coli [9]) | inhibition (Escherichia coli [10]) | Activity (Lipid bilayer [11]) | Activity (Lipid bilayer [12]) | growth inhibition (GI) (Escherichia coli [8])
C[C@H](NC(=O)[C@H](C)NC(=O)[C@H](Cc1ccccc1)NC(=O)[C@]1(C)CCC/C=C\CCC[C@](C)(NC(=O)[C@H](Cc2ccccc2)NC(=O)[C@H](C)NC(=O)[C@H](C)NC(=O)[C@H](CCCCN)NC(=O)[C@H](CCCCN)NC(=O)[C@H](CCCCN)NC(=O)[C@H](CCCCN)NC(=O)[C@H](CCCCN)NC(=O)[C@@H](N)CCCCN)C(=O)N[C@@H](C)C(=O)N[C@@H](Cc2c[nH]c3ccccc23)C(=O)N[C@@H](C)C(=O)N1)C(N)=O (H-KKKKKKAAF[S5]AWA[S5]FAA-NH2; staple (Z) 10-14) | 1 (≈ 1.94 µg/mL) | inactive | Active | inactive | Active | 3.8 | 2 | 3.8 | ≤ 40 |  |  |  |  | 
H-KKKKKKAAFAAWAAFAA-NH2 | 1.6 | inactive | Active | Active |  | 200 |  | 320 |  | Active |  | Active | Active | Active

Further lines, with some results ahead:

MIC (Escherichia coli [1]) [µM] | Activity (Lipid bilayer [3]) | Activity [5] | Activity (Lipid bilayer [6]) | Compound | inhibition (Escherichia coli [2]) | selectivity ratio [4] | hemolysis at 1 h, 4 µM [7] [%] | MHC (Erythrocyte) [µM] | inhibition of growth at 2 µM (Escherichia coli [8]) [%] | inhibition (Escherichia coli [9]) | inhibition (Escherichia coli [10]) | Activity (Lipid bilayer [11]) | Activity (Lipid bilayer [12]) | growth inhibition (GI) (Escherichia coli [8])
1.6 (≈ 3.06 µg/mL) | inactive | Active | Active | C[C@H](NC(=O)CNC(=O)[C@H](Cc1ccccc1)NC(=O)[C@]1(C)CCC/C=C\CCC[C@](C)(NC(=O)[C@H](Cc2ccccc2)NC(=O)CNC(=O)[C@H](C)NC(=O)[C@H](CCCCN)NC(=O)[C@H](CCCCN)NC(=O)[C@H](CCCCN)NC(=O)[C@H](CCCCN)NC(=O)[C@H](CCCCN)NC(=O)[C@@H](N)CCCCN)C(=O)N[C@@H](C)C(=O)N[C@@H](Cc2c[nH]c3ccccc23)C(=O)N[C@@H](C)C(=O)N1)C(N)=O (H-KKKKKKAGF[S5]AWA[S5]FGA-NH2; staple (Z) 10-14) |  | 9.4 |  | 15 | ≤ 40 | Active |  |  |  | 
4.2 (≈ 7.99 µg/mL) | inactive | Active | Active | C[C@H](NC(=O)CNC(=O)[C@H](Cc1ccccc1)NC(=O)[C@]1(C)CCC/C=C\CCC[C@](C)(NC(=O)[C@H](Cc2ccccc2)NC(=O)CNC(=O)[C@H](C)NC(=O)[C@H](CCCCN)NC(=O)[C@H](CCCCN)NC(=O)[C@H](CCCCN)NC(=O)[C@H](CCCCN)NC(=O)[C@H](CCCCN)NC(=O)[C@@H](N)CCCCN)C(=O)N[C@@H](C)C(=O)N[C@@H](Cc2c[nH]c3ccccc23)C(=O)NCC(=O)N1)C(N)=O (H-KKKKKKAGF[S5]AWG[S5]FGA-NH2; staple (Z) 10-14) |  | 30.8 |  | 128 | ≤ 40 |  | Active |  |  | 
4.2 (≈ 8.17 µg/mL) | inactive | inactive | Active | C[C@H](NC(=O)CNC(=O)[C@H](Cc1ccccc1)NC(=O)[C@]1(C)CCC/C=C\CCC[C@](C)(NC(=O)[C@H](Cc2ccccc2)NC(=O)CNC(=O)[C@H](CC(N)=O)NC(=O)[C@H](CCCCN)NC(=O)[C@H](CCCCN)NC(=O)[C@H](CCCCN)NC(=O)[C@H](CCCCN)NC(=O)[C@H](CCCCN)NC(=O)[C@@H](N)CCCCN)C(=O)N[C@@H](C)C(=O)N[C@@H](Cc2c[nH]c3ccccc23)C(=O)NCC(=O)N1)C(N)=O (H-KKKKKKNGF[S5]AWG[S5]FGA-NH2; staple (Z) 10-14) |  | 140 |  | 587 | ≤ 40 |  | Active | Active | inactive | 
